Results taken from patent publication US10125125B2, “N-(heteroaryl)-sulfonamide derivatives useful as S100-inhibitors” (Active Biotech AB, priority 2013, dated 2018).

biological target: biotinylated human S100A9 : rhRAGE-Fc interaction (Homo sapiens (Human), UniProt P06702); experiment: AlphaScreen inhibition assay, Biot-hS100A9:hRAGE-Fc (S100A9-RAGE inhibition assay); assay type: binding
From the text: FIG. 1 is a schematic representation of an assay of the inhibition of the interaction between biotinylated human S100A9 and human RAGE-Fc using a small molecule S100A9 binder.
Inhibition Assay, Biot-hS100A9:hRAGE-Fc
The AlphaScreen (Amplified Luminescent Proximity Homogeneous Assay) contains two types of beads, Alpha Donor beads and Acceptor beads (PerkinElmer). Upon laser excitation at 680 nm a photosensitizer in the Donor bead converts ambient oxygen to a more excited singlet state. The singlet oxygen molecule diffuses (maximum 200 nm) to react with a thioxene derivative in the Acceptor bead and generates a chemiluminescence reaction. Fluorophores in the Acceptor bead subsequently emit light at 520-620 nm which can be detected in the EnVision® Multilabel plate Reader (PerkinElmer). The beads are light sensitive and all work with the beads is performed under subdued light conditions or using green filters on light sources (Roscolux Chroma Green #389, Rosco).
In the AlphaScreen Inhibition Assay described here, protein A (Staphylococcus aureus) conjugated Acceptor beads are used together with streptavidin coated Donor beads (Perkin Elmer 6760617M). The Acceptor beads are pre-incubated with Fc-tagged recombinant human RAGE (rhRAGE-Fc) allowing binding of the rhRAGE-Fc to protein A on the beads. Biotinylated human S100A9 (biot-hS100A9) is pre-incubated with the low molecular test compounds. The pre-mixes are then added to the wells of a micro-plate and incubated allowing interaction between biot-hS100A9 and rhRAGE-Fc. Subsequent addition of streptavidin coated Donor beads causes binding of the streptavidin to the biotinylated hS100A9. After an additional incubation the signal is measured.
Without inhibitory compounds, the interaction of biot-hS100A9 to rhRAGE-Fc will bring the Acceptor and Donor beads in close proximity thus generating a high signal. With an inhibitor present the complex will not form resulting in a decreased signal.
Chemicals and reagents. • AlphaScreen® General IgG (Protein A) Detection Kit, (PerkinElmer 6760617M) • HBS-P buffer (GE Healthcare, BR-1003-68) • HBS-N buffer (GE Healthcare, BR-1003-69) • CaCl2 in HBS-P • ZnCl2 in Milli-Q water • DMSO • Biotinylated hS100A9, (biotinylated via cystein by EZ-link Iodoacetyl-PEG2-Biotin reagent (Pierce no. 21334), in HBS-N • rhRAGE-Fc (R&D Systems, 1145-RG-50), in HBS-P
The AlphaScreen assay method is used for screening of the inhibitory effect of different compound samples at fixed concentrations or for IC50 determination by varying the compound concentrations. Samples of test compounds and references are prepared from solutions in DMSO. Relevant reference inhibitors and DMSO are used as controls for defined inhibition and non-inhibition, respectively in the assay. The percent inhibition in assay for test compounds and references are calculated by comparing their obtained assay signals with the signal values for the control with only DMSO (no compound).
Assay concentration of biotinylated hS100A9 and rhRAGE-Fc are batch dependent, and are determined and defined by separate cross-titration experiments using this AlphaScreen inhibition method to verify the optimal setup regarding signal strength and achievement of a defined inhibition with relevant reference compounds. The Final assay concentrations of Acceptor and Donor beads are 20 μg/mL.
Experimental Set Up for Screening, Preparation of Solutions and Beads.
Assay buffer is prepared by adding CaCl2 and ZnCl2 to HBS-P and is used freshly prepared in the experiment.
Biotin-hS100A9 solution for the experiment is prepared by dilution of appropriate amount of stock solution biot-hS100A9 in assay buffer (with CaCl2 and ZnCl2) and incubation in room temperature for 30 minutes.
rhRAGE-Fc solution for the experiment is prepared by dilution appropriate amount of rhRAGE-Fc stock in assay buffer.
Protein A Acceptor beads are diluted in assay buffer and are added to an equal volume of the prepared diluted rhRAGE-Fc solution.

Chain of biotinylated human S100A9 : rhRAGE-Fc interaction (P06702 whole entry): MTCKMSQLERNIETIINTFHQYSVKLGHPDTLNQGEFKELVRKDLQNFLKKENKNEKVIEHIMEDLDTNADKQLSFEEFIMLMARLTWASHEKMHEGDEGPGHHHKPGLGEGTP

IC50 [nM]	SMILES
410	O=S(=O)(Cc1cccc(Cl)c1)Nc1nnc(Cl)cc1O [Example 96, N-(6-chloro-4-hydroxypyridazin-3-yl)-1-(3-chlorophenyl)methanesulfonamide]
3800	O=S(=O)(Cc1cc(Cl)cc(Cl)c1)Nc1cncc(Br)c1O [Example 97, N-(5-bromo-4-hydroxypyridin-3-yl)-1-(3,5-dichlorophenyl)methanesulfonamide]
2200	O=S(=O)(Nc1cncc(Cl)c1O)c1ccc(OC(F)(F)F)c(Cl)c1 [Example 102, 3-chloro-N-(5-chloro-4-hydroxypyridin-3-yl)-4-(trifluoromethoxy)benzene-1-sulfonamide]
< 1000	N#Cc1cnc(NS(=O)(=O)Cc2cc(Cl)cc(Cl)c2)c(O)n1 [Example 103, N-(5-cyano-3-hydroxypyrazin-2-yl)-1-(3,5-dichlorophenyl)methanesulfonamide]
4000	O=S(=O)(Cc1cc(Cl)cc(Cl)c1)Nc1cnc(Cl)nc1O [Example 107, N-(2-chloro-4-hydroxypyrimidin-5-yl)-1-(3,5-dichlorophenyl)methanesulfonamide]
100	CCS(=O)(=O)c1cc(O)c(NS(=O)(=O)Cc2cc(Cl)cc(Cl)c2)nn1 [Example 111, 1-(3,5-dichlorophenyl)-N-[6-(ethanesulfonyl)-4-hydroxypyridazin-3-yl]methanesulfonamide]
420	CS(=O)(=O)c1cnc(NS(=O)(=O)Cc2cc(Cl)cc(Cl)c2)c(O)n1 [Example 112, 1-(3,5-dichlorophenyl)-N-(3-hydroxy-5-methanesulfonylpyrazin-2-yl)methane-sulfonamide]
2000	O=S(=O)(Nc1nnc(Cl)cc1O)c1cc(Cl)sc1Cl [Example 113, 2,5-dichloro-N-(6-chloro-4-hydroxypyridazin-3-yl)thiophene-3-sulfonamide]
1000	COc1ncc(S(=O)(=O)Nc2nnc(Cl)cc2O)cc1Br [Example 114, 5-bromo-N-(6-chloro-4-hydroxypyridazin-3-yl)-6-methoxypyridine-3-sulfonamide]
> 1000	COc1ccc(S(=O)(=O)Nc2cncc(Cl)c2O)cc1Cl [Example 122, 3-chloro-N-(5-chloro-4-hydroxypyridin-3-yl)-4-methoxybenzene-1-sulfonamide]
1110	N#Cc1cc(CS(=O)(=O)Nc2ncc(Cl)cc2O)cs1 [Example 127, N-(5-chloro-3-hydroxypyridin-2-yl)-1-(5-cyanothiophen-3-yl)methanesulfonamide]
390	N#Cc1nc(NS(=O)(=O)Cc2cc(Cl)cc(Cl)c2)c(O)cc1Cl [Example 130, N-(5-chloro-6-cyano-3-hydroxypyridin-2-yl)-1-(3,5-dichlorophenyl)methane-sulfonamide]
120	O=S(=O)(Cc1cc(Cl)cc(Cl)c1)Nc1ncc(S(=O)(=O)C2CCCC2)cc1O [Example 131, N-[5-(cyclopentanesulfonyl)-3-hydroxypyridin-2-yl]-1-(3,5-dichlorophenyl)methane-sulfonamide]
530	CS(=O)(=O)c1nc(NS(=O)(=O)Cc2cc(Cl)cc(Cl)c2)c(O)cc1Cl [Example 134, N-(5-chloro-3-hydroxy-6-methanesulfonylpyridin-2-yl)-1-(3,5-dichlorophenyl)-methanesulfonamide]
> 1000	CN(C)c1ncc(S(=O)(=O)Nc2ncc(Cl)cc2O)cc1S(C)(=O)=O [Example 136, N-(5-chloro-3-hydroxypyridin-2-yl)-6-(dimethylamino)-5-methanesulfonylpyridine-3-sulfonamide]
1800	COc1ncc(S(=O)(=O)Nc2cnc(C(F)(F)F)cc2O)cc1Br [Example 137, 5-bromo-N-[4-hydroxy-6-(trifluoromethyl)pyridin-3-yl]-6-methoxypyridine-3-sulfonamide]
3900	N#Cc1cncc(NS(=O)(=O)Cc2cc(Cl)cc(Cl)c2)c1O [Example 138, N-(5-cyano-4-hydroxypyridin-3-yl)-1-(3,5-dichlorophenyl)methanesulfonamide]

IC50 [nM]	SMILES
< 1000	O=S(=O)(Cc1cc(Cl)cc(Cl)c1)Nc1nnc(S(=O)(=O)CCCO)cc1O [Example 139, 1-(3,5-dichlorophenyl)-N-[4-hydroxy-6-(3-hydroxypropanesulfonyl)pyridazin-3-yl]methanesulfonamide]
180	O=S(=O)(Cc1cc(Cl)cc(Cl)c1)Nc1nc(Cl)ncc1O [Example 143, N-(2-chloro-5-hydroxypyrimidin-4-yl)-1-(3,5-dichlorophenyl)methanesulfonamide]
< 1000	O=S(=O)(Nc1nc(Cl)ncc1O)c1ccc(Cl)c(Cl)c1 [Example 144, 3,4-dichloro-N-(2-chloro-5-hydroxypyrimidin-4-yl)benzene-1-sulfonamide]
> 1000	CS(=O)(=O)c1cc(O)c(NS(=O)(=O)c2cc(Cl)cc(Cl)c2)cn1 [Example 155, 3,5-dichloro-N-(4-hydroxy-6-methanesulfonylpyridin-3-yl)benzene-1-sulfonamide]
< 1000	O=S(=O)(Cc1cc(Cl)cc(Cl)c1)Nc1nc(C(F)(F)F)ncc1O [Example 157, 1-(3,5-dichlorophenyl)-N-[5-hydroxy-2-(trifluoromethyl)pyrimidin-4-yl]methane-sulfonamide]
1800	CS(=O)(=O)c1cnc(NS(=O)(=O)c2cc(Cl)cc(Cl)c2)c(O)n1 [Example 159, 3,5-dichloro-N-(3-hydroxy-5-methanesulfonylpyrazin-2-yl)benzene-1-sulfonamide]
5100	CCN(CC)C(=O)c1cc(Cl)cc(CS(=O)(=O)Nc2nnc(Cl)cc2O)c1 [Example 161, 3-chloro-5-{[(6-chloro-4-hydroxypyridazin-3-yl)sulfamoyl]methyl}-N,N-diethylbenzamide]
> 1000	O=S(=O)(Nc1nnc(C(F)(F)F)cc1O)c1cc(F)cc(Cl)c1 [Example 163, 3-chloro-5-fluoro-N-[4-hydroxy-6-(trifluoromethyl)pyridazin-3-yl]benzene-1-sulfonamide]
< 1000	O=S(=O)(Cc1cc(Cl)cc(Cl)c1)Nc1ccncc1O [Example 167, 1-(3,5-dichlorophenyl)-N-(3-hydroxypyridin-4-yl)methanesulfonamide]
< 1000	O=S(=O)(Nc1ccnc(Cl)c1O)c1cc(Cl)cc(Cl)c1 [Example 170, 3,5-dichloro-N-(2-chloro-3-hydroxypyridin-4-yl)benzene-1-sulfonamide]
3100	O=S(=O)(Cc1ccc(Cl)c(Cl)c1)Nc1cc(Cl)cnc1O [Example 172, N-(5-chloro-2-hydroxypyridin-3-yl)-1-(3,4-dichlorophenyl)methanesulfonamide]
< 1000	O=S(=O)(Cc1cc(Cl)cc(Cl)c1)Nc1cc(Cl)c(Cl)nc1O [Example 173, N-(5,6-dichloro-2-hydroxypyridin-3-yl)-1-(3,5-dichlorophenyl)methanesulfonamide]
> 1000	O=S(=O)(Cc1ccc(C(F)(F)F)cc1)Nc1ccc(Cl)nc1O [Example 178, N-(6-chloro-2-hydroxypyridin-3-yl)-1-[4-(trifluoromethyl)phenyl]methane-sulfonamide]
< 1000	CCCc1ccc(S(=O)(=O)Nc2ccc(Cl)nc2O)cc1 [Example 179, N-(6-chloro-2-hydroxypyridin-3-yl)-4-propylbenzene-1-sulfonamide]
< 1000	COc1ncc(CS(=O)(=O)Nc2ccc(Cl)nc2O)cc1Cl [Example 182, N-(6-chloro-2-hydroxypyridin-3-yl)-1-(5-chloro-6-methoxypyridin-3-yl)methane-sulfonamide]
< 1000	O=S(=O)(Cc1cnc(N2CCCC2)c(Cl)c1)Nc1ccc(Cl)nc1O [Example 185, N-(6-chloro-2-hydroxypyridin-3-yl)-1-[5-chloro-6-(pyrrolidin-1-yl)pyridin-3-yl]-methanesulfonamide]
